{"source": "paper PMC6321168", "about": "“Comparative Study on Excretive Characterization of Main Components in Herb Pair Notoginseng-Safflower and Single Herbs by LC–MS/MS” (Pharmaceutics, 2018)", "assay": "Fecal excretion study in rats after oral NS, SF or CNS (LC–MS/MS)", "type": "in vivo", "details": "rat feces", "description": "The animal room was set at constant temperature of 20 ± 2 °C with humidity of 50 ± 20% and 12/12 h light/dark cycle.\nEighteen male rats were fasted for 12 h before starting the experiment. The rats were divided into three groups at random (n = 6) and received NS (60 mg/kg), SF (50 mg/kg), and NS (60 mg/kg) + SF (50 mg/kg), respectively, by oral gavage. The rats were placed in separate metabolic cages. The urine samples were collected at 0–2, 2–4, 4–6, 6–8, 8–12, 12–24, 24–36, 36–48, 48–72, 72–96, and 96–120 h. The feces samples were collected at 0–4, 4–8, 8–12, 12–24, 24–36, 36–48, 48–72, 72–96, and 96–120 h. The urine volume was recorded and the dry feces were measured for each collection period. Samples were stored at −80 °C until analysis.\nFeces samples were homogenized in ultrapure water (1 g/15 mL), soaked for 30 min, ultrasonically extracted for 30 min and centrifuged at 9000 rpm for 8 min. An aliquot of 200 μL feces water extraction solution was mixed with 10 μL of IS and then extracted three times with water-saturated n-BuOH (150 μL). The upper organic phase was combined and evaporated to dryness using a ZLS-2 vacuum centrifugal concentrator. The residue was treated as the urine sample and a 1-μL aliquot was injected for LC–MS analysis.\nUltra fast liquid chromatography (UFLC) analysis was performed using a Shimadzu UFLC system (DGU-20A3R Degasser; LC-20AD pump; SIL-20AXR Autosampler; CTO-20AC Column Oven) (Nakagyo-Ku, Koyoto, Japan). […] Because of the different endogenous substances in the urine and feces samples, different elution gradients were used to alleviate the matrix effects for the analytes.\nThe mass spectrometric detection was performed on an ABSciex 4500 Qtrap mass spectrometer (ABSciex, Foster City, CA, USA) equipped with a negative electrospray ionization (ESI) interface using multiple reaction monitoring (MRM). The MS parameters were optimized under the selected ion monitoring conditions as follows: curtain gas, 35 psi; ionspray voltage, 4500 V; turbo gas temperature, 450 °C; GS1, 45 psi; GS2, 45 psi. All data were acquired and analyzed by Analyst software (Versions 1.6.2) from ABSciex.\nThe accumulative excretion percentage was calculated for each analyte as follows. Excretion at time (t) = [concentration of the analyte (ng/mL) at t] × total urine (or feces) volume (mL) at t. The cumulative excretion up to time t (mg) was expressed as a percent (%) cumulative excretion by dividing by the total amount of the analyte ingested (mg): % Cumulative Excretion = 100 × (Σt excretiont) total ingested."}
{"smiles": "CC(C)=CCC[C@](C)(O[C@@H]1O[C@H](CO)[C@@H](O)[C@H](O)[C@H]1O)[C@H]1CC[C@]2(C)[C@@H]1[C@H](O)C[C@@H]1[C@@]3(C)CC[C@H](O[C@@H]4O[C@H](CO)[C@@H](O)[C@H](O)[C@H]4O[C@@H]4O[C@H](CO)[C@@H](O)[C@H](O)[C@H]4O)C(C)(C)[C@@H]3CC[C@]12C", "note": "[ginsenoside Rd]", "values": [{"measurement": "concentration at 4 h", "setting": "male, Sprague Dawley, oral CNS 110 mg/kg, 4 h", "result": "204 ± 283", "unit": "ng/mL"}, {"measurement": "concentration at 8 h", "setting": "male, Sprague Dawley, oral CNS 110 mg/kg, 8 h", "result": "274 ± 65", "unit": "ng/mL"}, {"measurement": "concentration at 12 h", "setting": "male, Sprague Dawley, oral CNS 110 mg/kg, 12 h", "result": "164 ± 12", "unit": "ng/mL"}, {"measurement": "concentration at 24 h", "setting": "male, Sprague Dawley, oral CNS 110 mg/kg, 24 h", "result": "119 ± 51", "unit": "ng/mL"}, {"measurement": "concentration at 36 h", "setting": "male, Sprague Dawley, oral CNS 110 mg/kg, 36 h", "result": "653 ± 41", "unit": "ng/mL"}, {"measurement": "concentration at 48 h", "setting": "male, Sprague Dawley, oral CNS 110 mg/kg, 48 h", "result": "658 ± 72", "unit": "ng/mL"}, {"measurement": "concentration at 72 h", "setting": "male, Sprague Dawley, oral CNS 110 mg/kg, 72 h", "result": "153 ± 72", "unit": "ng/mL"}, {"measurement": "concentration at 96 h", "setting": "male, Sprague Dawley, oral CNS 110 mg/kg, 96 h", "result": "35 ± 34", "unit": "ng/mL"}, {"measurement": "concentration at 4 h", "setting": "male, Sprague Dawley, oral NS 60 mg/kg, 4 h", "result": "752 ± 79", "unit": "ng/mL"}, {"measurement": "concentration at 8 h", "setting": "male, Sprague Dawley, oral NS 60 mg/kg, 8 h", "result": "605 ± 22", "unit": "ng/mL"}, {"measurement": "concentration at 12 h", "setting": "male, Sprague Dawley, oral NS 60 mg/kg, 12 h", "result": "602 ± 49", "unit": "ng/mL"}, {"measurement": "concentration at 24 h", "setting": "male, Sprague Dawley, oral NS 60 mg/kg, 24 h", "result": "670 ± 34", "unit": "ng/mL"}, {"measurement": "concentration at 36 h", "setting": "male, Sprague Dawley, oral NS 60 mg/kg, 36 h", "result": "505 ± 14", "unit": "ng/mL"}, {"measurement": "concentration at 48 h", "setting": "male, Sprague Dawley, oral NS 60 mg/kg, 48 h", "result": "704 ± 26", "unit": "ng/mL"}, {"measurement": "concentration at 72 h", "setting": "male, Sprague Dawley, oral NS 60 mg/kg, 72 h", "result": "122 ± 5", "unit": "ng/mL"}, {"measurement": "concentration at 96 h", "setting": "male, Sprague Dawley, oral NS 60 mg/kg, 96 h", "result": "17 ± 1", "unit": "ng/mL"}, {"measurement": "concentration at 120 h", "setting": "male, Sprague Dawley, oral NS 60 mg/kg, 120 h", "result": "15 ± 2", "unit": "ng/mL"}, {"measurement": "Accumulative excretion amount", "setting": "oral CNS 110 mg/kg, 4 h", "result": "2.579 ± 3.701", "unit": "µg"}, {"measurement": "Accumulative excretion percentage", "setting": "oral CNS 110 mg/kg, 4 h", "result": "0.343±0.491", "unit": "%"}, {"measurement": "Excretion amount", "setting": "oral CNS 110 mg/kg, 4 h", "result": "2.579 ± 3.701", "unit": "µg"}, {"measurement": "Accumulative excretion amount", "setting": "oral CNS 110 mg/kg, 8 h", "result": "6.687 ± 3.535", "unit": "µg"}, {"measurement": "Accumulative excretion percentage", "setting": "oral CNS 110 mg/kg, 8 h", "result": "0.883±0.462", "unit": "%"}, {"measurement": "Excretion amount", "setting": "oral CNS 110 mg/kg, 8 h", "result": "4.108 ± 1.195", "unit": "µg"}, {"measurement": "Accumulative excretion amount", "setting": "oral CNS 110 mg/kg, 12 h", "result": "9.145 ± 3.524", "unit": "µg"}, {"measurement": "Accumulative excretion percentage", "setting": "oral CNS 110 mg/kg, 12 h", "result": "1.204±0.465", "unit": "%"}, {"measurement": "Excretion amount", "setting": "oral CNS 110 mg/kg, 12 h", "result": "2.459 ± 0.753", "unit": "µg"}, {"measurement": "Accumulative excretion amount", "setting": "oral CNS 110 mg/kg, 24 h", "result": "11.000 ± 3.256", "unit": "µg"}, {"measurement": "Accumulative excretion percentage", "setting": "oral CNS 110 mg/kg, 24 h", "result": "1.453±0.432", "unit": "%"}, {"measurement": "Excretion amount", "setting": "oral CNS 110 mg/kg, 24 h", "result": "1.855 ± 1.046", "unit": "µg"}, {"measurement": "Accumulative excretion amount", "setting": "oral CNS 110 mg/kg, 36 h", "result": "20.700 ± 5.415", "unit": "µg"}, {"measurement": "Accumulative excretion percentage", "setting": "oral CNS 110 mg/kg, 36 h", "result": "2.724±0.715", "unit": "%"}, {"measurement": "Excretion amount", "setting": "oral CNS 110 mg/kg, 36 h", "result": "9.700 ± 2.660", "unit": "µg"}, {"measurement": "Accumulative excretion amount", "setting": "oral CNS 110 mg/kg, 48 h", "result": "30.478 ± 7.801", "unit": "µg"}, {"measurement": "Accumulative excretion percentage", "setting": "oral CNS 110 mg/kg, 48 h", "result": "4.011±1.032", "unit": "%"}, {"measurement": "Excretion amount", "setting": "oral CNS 110 mg/kg, 48 h", "result": "9.778 ± 2.743", "unit": "µg"}, {"measurement": "Accumulative excretion amount", "setting": "oral CNS 110 mg/kg, 72 h", "result": "32.881 ± 8.515", "unit": "µg"}, {"measurement": "Accumulative excretion percentage", "setting": "oral CNS 110 mg/kg, 72 h", "result": "4.322±1.123", "unit": "%"}, {"measurement": "Excretion amount", "setting": "oral CNS 110 mg/kg, 72 h", "result": "2.403 ± 1.477", "unit": "µg"}, {"measurement": "Accumulative excretion amount", "setting": "oral CNS 110 mg/kg, 96 h", "result": "33.451 ± 8.722", "unit": "µg"}, {"measurement": "Accumulative excretion percentage", "setting": "oral CNS 110 mg/kg, 96 h", "result": "4.403±1.154", "unit": "%"}, {"measurement": "Excretion amount", "setting": "oral CNS 110 mg/kg, 96 h", "result": "0.570 ± 0.568", "unit": "µg"}, {"measurement": "Accumulative excretion percentage", "setting": "oral CNS 110 mg/kg, 120 h", "result": "4.404±1.151", "unit": "%"}, {"measurement": "Accumulative excretion amount", "setting": "oral NS 60 mg/kg, 4 h", "result": "10.755 ± 3.385", "unit": "µg"}, {"measurement": "Accumulative excretion percentage", "setting": "oral NS 60 mg/kg, 4 h", "result": "1.232±0.395", "unit": "%"}, {"measurement": "Excretion amount", "setting": "oral NS 60 mg/kg, 4 h", "result": "10.755 ± 3.385", "unit": "µg"}, {"measurement": "Accumulative excretion amount", "setting": "oral NS 60 mg/kg, 8 h", "result": "19.476 ± 6.086", "unit": "µg"}, {"measurement": "Accumulative excretion percentage", "setting": "oral NS 60 mg/kg, 8 h", "result": "2.244± 0.706", "unit": "%"}, {"measurement": "Excretion amount", "setting": "oral NS 60 mg/kg, 8 h", "result": "8.721 ± 2.813", "unit": "µg"}, {"measurement": "Accumulative excretion amount", "setting": "oral NS 60 mg/kg, 12 h", "result": "28.152 ± 8.861", "unit": "µg"}, {"measurement": "Accumulative excretion percentage", "setting": "oral NS 60 mg/kg, 12 h", "result": "3.232±1.024", "unit": "%"}, {"measurement": "Excretion amount", "setting": "oral NS 60 mg/kg, 12 h", "result": "8.676 ± 2.808", "unit": "µg"}, {"measurement": "Accumulative excretion amount", "setting": "oral NS 60 mg/kg, 24 h", "result": "37.713 ± 11.637", "unit": "µg"}, {"measurement": "Accumulative excretion percentage", "setting": "oral NS 60 mg/kg, 24 h", "result": "4.331±1.342", "unit": "%"}, {"measurement": "Excretion amount", "setting": "oral NS 60 mg/kg, 24 h", "result": "9.562 ± 2.795", "unit": "µg"}, {"measurement": "Accumulative excretion amount", "setting": "oral NS 60 mg/kg, 36 h", "result": "45.004 ± 14.004", "unit": "µg"}, {"measurement": "Excretion amount", "setting": "oral NS 60 mg/kg, 36 h", "result": "7.290 ± 2.427", "unit": "µg"}, {"measurement": "Accumulative excretion amount", "setting": "oral NS 60 mg/kg, 48 h", "result": "55.154 ± 17.338", "unit": "µg"}, {"measurement": "Accumulative excretion percentage", "setting": "oral NS 60 mg/kg, 48 h", "result": "6.332±1.991", "unit": "%"}, {"measurement": "Excretion amount", "setting": "oral NS 60 mg/kg, 48 h", "result": "10.151 ± 3.361", "unit": "µg"}, {"measurement": "Accumulative excretion amount", "setting": "oral NS 60 mg/kg, 72 h", "result": "56.907 ± 17.892", "unit": "µg"}, {"measurement": "Accumulative excretion percentage", "setting": "oral NS 60 mg/kg, 72 h", "result": "6.534±2.048", "unit": "%"}, {"measurement": "Excretion amount", "setting": "oral NS 60 mg/kg, 72 h", "result": "1.753 ± 0.562", "unit": "µg"}, {"measurement": "Accumulative excretion amount", "setting": "oral NS 60 mg/kg, 96 h", "result": "57.148 ± 17.967", "unit": "µg"}, {"measurement": "Accumulative excretion percentage", "setting": "oral NS 60 mg/kg, 96 h", "result": "6.563±2.059", "unit": "%"}, {"measurement": "Excretion amount", "setting": "oral NS 60 mg/kg, 96 h", "result": "0.241 ± 0.076", "unit": "µg"}, {"measurement": "Accumulative excretion amount", "setting": "oral NS 60 mg/kg, 120 h", "result": "57.371 ± 18.037", "unit": "µg"}, {"measurement": "Accumulative excretion percentage", "setting": "oral NS 60 mg/kg, 120 h", "result": "6.589±2.068", "unit": "%"}, {"measurement": "Excretion amount", "setting": "oral NS 60 mg/kg, 120 h", "result": "0.223 ± 0.076", "unit": "µg"}]}
